Key:
[1] = tested on: p-IKKα levels in L363 (NIK translocated multiple myeloma) cells; test: Effect of compounds on p-IKKα levels in L363 cells (AlphaLISA SureFire Ultra); format: cell-based; details: Homo sapiens, L-363; L363 cells, BAFF stimulated, MG132, 6 h; average of values; read-out: Assay 2 IC50
Experimental: Biological Assay 2: Effect of Compounds on p-IKKα Levels in L363 (NIK Translocated Multiple Myeloma) Cells
All compounds tested were dissolved and serially diluted in DMSO, 1:3 dilution for 11 points in an Echo compatible plate. 100% DMSO is added to columns 12 and 24 of the plate to serve as high and low signal controls. This compound plate was used to spot 20 nl of compound or DMSO into a Greiner 384 well TC plate (781080). Final DMSO concentration was […] (v/v) in cell assays. Human L363 cells (ATCC) were cultured in RPMI 1640 medium supplemented with GlutaMax, non-essential amino acids, sodium pyruvate and 10% fetal bovine serum. Cells were routinely maintained at densities of 0.2×10^6 cells per ml −2×10^6 cells per ml at 37° C. in a humidified 5% CO2 atmosphere incubator. Cells were passaged twice a week splitting back to obtain the low density. The day before the assay, cells were washed twice in HBSS, resuspended in DMEM+0.5% IgG and protease free BSA (Jackson Immuno Research Laboratories), +/−250 ng/ml recombinant human B-cell activating factor (BAFF/BLyS/TNFSF13B) and incubated overnight at 37° C. in a humidified 5% CO2 atmosphere (bulk stimulation with or without BAFF). The next day, cell concentration was adjusted to 1×10^7 cells/ml in DMEM+/−250 ng/ml BAFF+/−10 uM MG132 and plated at 10 ul/well into compound or DMSO spotted 384 well TC plates. Seeded cells were incubated at 37° C. in a humidified 5% CO2 atmosphere for 6 h. After 6 h, plates were removed from the incubator and cell lysis was achieved by the addition of 2.5 μl 5× lysis buffer containing protease and phosphatase inhibitors, followed by shaking on a plate shaker at room temperature for 15 min. At the end of this incubation, lysed cells were sequentially treated and incubated with acceptor and donor bead mixes according to the manufacturer's protocol for a 1 plate/2-incubation suspension cell assay (AlphaLISA SureFire Ultra p-IKKα (Ser 176/180) Assay Kit (Perkin ElmeR). Plates were read using an EnVision® Multilabel Plate Reader (Perkin ElmeR). Within an experiment, a concentration response curve for each compound was run in duplicate. Signal obtained in the test wells was normalized using high signal (BAFF stimulated cells, DMSO, MG132) and low signal (unstimulated cells, DMSO) controls. To determine the IC50, a sigmoidal curve was fitted to the plot of % inhibition versus Log10 compound concentration.

[2] = molecular target: Recombinant Human NF-Kappab-Inducing Kinase (NIK/MAP3K14) (Homo sapiens, UniProt Q99558); test: Inhibition of auto-phosphorylation of recombinant human NIK/MAP3K14 (AlphaScreen); format: biochemical; details: NIK/MAP3K14 auto-phosphorylation, 5 microM ATP, 1 nM enzyme, 2 h at 25° C.; average of values; read-out: Assay 1 IC50
Chain of Recombinant Human NF-Kappab-Inducing Kinase (NIK/MAP3K14) (Q99558 whole entry): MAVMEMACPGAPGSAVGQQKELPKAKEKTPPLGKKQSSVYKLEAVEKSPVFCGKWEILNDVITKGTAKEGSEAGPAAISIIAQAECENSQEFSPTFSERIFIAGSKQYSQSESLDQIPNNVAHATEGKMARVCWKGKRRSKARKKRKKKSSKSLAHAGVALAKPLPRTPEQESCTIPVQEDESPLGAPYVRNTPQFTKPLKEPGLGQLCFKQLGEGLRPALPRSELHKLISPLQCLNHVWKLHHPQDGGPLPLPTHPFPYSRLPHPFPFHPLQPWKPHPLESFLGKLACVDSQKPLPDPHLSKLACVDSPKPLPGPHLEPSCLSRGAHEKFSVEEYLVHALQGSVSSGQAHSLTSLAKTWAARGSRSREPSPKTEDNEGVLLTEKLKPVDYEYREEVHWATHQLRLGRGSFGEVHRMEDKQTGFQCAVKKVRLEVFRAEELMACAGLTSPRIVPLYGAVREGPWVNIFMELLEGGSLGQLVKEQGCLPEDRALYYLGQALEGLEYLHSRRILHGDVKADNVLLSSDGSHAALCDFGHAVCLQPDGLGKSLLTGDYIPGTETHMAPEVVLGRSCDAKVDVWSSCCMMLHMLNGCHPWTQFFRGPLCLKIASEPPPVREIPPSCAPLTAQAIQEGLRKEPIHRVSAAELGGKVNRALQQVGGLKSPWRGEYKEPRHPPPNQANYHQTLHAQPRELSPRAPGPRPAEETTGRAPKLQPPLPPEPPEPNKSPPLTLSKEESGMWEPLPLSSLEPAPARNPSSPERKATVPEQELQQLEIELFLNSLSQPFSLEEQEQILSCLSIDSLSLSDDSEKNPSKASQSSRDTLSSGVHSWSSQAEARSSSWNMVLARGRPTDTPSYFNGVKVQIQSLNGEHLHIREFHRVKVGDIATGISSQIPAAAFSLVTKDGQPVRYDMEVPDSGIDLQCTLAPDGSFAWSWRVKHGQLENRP
Experimental: Biological Assay 1: Inhibition of Auto-Phosphorylation of Recombinant Human NF-Kappab-Inducing Kinase (NIK/MAP3K14) Activity (AlphaScreen®)
NIK/MAP3K14 auto-phosphorylation activity was measured using the AlphaScreen® ((αscreen) format (Perkin ElmeR). All compounds tested were dissolved in dimethyl sulfoxide (DMSO) and further dilutions were made in assay buffer. Final DMSO concentration was 0.7% (v/v) in assays. Assay buffer was 50 mM Tris pH 7.5 containing 1 mM EGTA (ethylene glycol tetraacetic acid), 1 mM DTT (dithiothreitol), 0.1 mM Na3VO4, 5 mM MgCl2, 0.01% Tween® 20. Assays were carried out in 384 well Proxiplates (Perkin ElmeR). Incubations consisted of compound, 5 microM Adenosine-5′-triphosphate (ATP), and 1 nM NIK/MAP3K14. Incubations were initiated by addition of GST-tagged NIK/MAP3K14 enzyme, carried out for 2 h at 25° C. and terminated by addition of stop buffer containing anti-phospho-IKK Ser176/180 antibody. Protein A Acceptor and Glutathione-donor beads were added before reading using an EnVision® Multilabel Plate Reader (Perkin ElmeR). Signal obtained in the wells was normalized using high (full enzyme activity, 0.7% DMSO) and low controls (no enzyme activity, 0.7% DMSO, no ATP). IC50's were determined by fitting a sigmoidal curve to % inhibition of control versus Log10 compound concentration.

Molecule CN1CC[C@@](O)(c2cc(-c3ccc(F)c(-c4cc(C(F)(F)F)cc(C(N)=O)n4)c3)no2)C1=O [Example 240, (R)-6-(2-Fluoro-5-(5-(3-hydroxy-1-methyl-2-oxopyrrolidin-3-yl)isoxazol-3-yl)phenyl)-4-(trifluoromethyl)picolinamide] has an IC50 [1] of over 501 nM and an IC50 [2] of under 100 nM.
For CN1CC[C@@](O)(c2cc(-c3cccc(-c4ccn5nccc5n4)c3)no2)C1=O [Example 68, (R)-3-Hydroxy-1-methyl-3-(3-(3-(pyrazolo[1,5-a]pyrimidin-5-yl)phenyl)isoxazol-5-yl)pyrrolidin-2-one], the IC50 [1] was over 501 nM and the IC50 [2] was over 501 nM.
With CN1CC[C@@](O)(c2cc(-c3cccc(-c4cc5[nH]ncc5cn4)c3)no2)C1=O [Example 83, (R)-3-(3-(3-(1H-pyrazolo[4,3-c]pyridin-6-yl)phenyl)isoxazol-5-yl)-3-hydroxy-1-methylpyrrolidin-2-one] the IC50 [1] was over 501 nM and the IC50 [2] was over 501 nM.
With CN1CC[C@@](O)(c2cc(-c3cccc(-c4ccc5ncn(C)c5c4)c3)no2)C1=O [Example 62, (R)-3-Hydroxy-1-methyl-3-(3-(3-(1-methyl-1H-benzo[d]imidazol-6-yl)phenyl)isoxazol-5-yl)pyrrolidin-2-one] the IC50 [1] was over 501 nM and the IC50 [2] was over 501 nM.
With CCn1ncc2cc(-c3cccc(-c4cc([C@]5(O)CCN(C)C5=O)on4)c3)cnc21 [Example 55, (R)-3-(3-(3-(1-Ethyl-1H-pyrazolo[3,4-b]pyridin-5-yl)phenyl)isoxazol-5-yl)-3-hydroxy-1-methylpyrrolidin-2-one] the IC50 [1] was over 501 nM and the IC50 [2] was over 501 nM.
Molecule CN1CC[C@@](O)(c2cc(-c3cccc(-c4nc(C(N)=O)c(N)s4)c3)no2)C1=O [Example 206, (R)-5-Amino-2-(3-(5-(3-hydroxy-1-methyl-2-oxopyrrolidin-3-yl)isoxazol-3-yl)phenyl)thiazole-4-carboxamide] has an IC50 [1] of under 100 nM and an IC50 [2] of under 100 nM.
Molecule CN1CC[C@@](O)(c2cc(-c3ccnc(-c4cccc(C(N)=O)n4)c3)no2)C1=O [Example 168, (R)-4′-(5-(3-Hydroxy-1-methyl-2-oxopyrrolidin-3-yl)isoxazol-3-yl)-[2,2′-bipyridine]-6-carboxamide] has an IC50 [1] of over 501 nM and an IC50 [2] of under 100 nM.
In the case of CN1CC[C@@](O)(c2cc(-c3cccc(-c4ncc(NCC5COC5)c(C(N)=O)n4)c3)no2)C1=O [Example 107, (R)-2-(3-(5-(3-Hydroxy-1-methyl-2-oxopyrrolidin-3-yl)isoxazol-3-yl)phenyl)-5-((oxetan-3-ylmethyl)amino)pyrimidine-4-carboxamide], the IC50 [1] is reported as under 100 nM and the IC50 [2] is reported as under 100 nM.
CN1CC[C@@](O)(c2cc(-c3cccc(-c4nc(C(N)=O)c(Nc5ccn(C)n5)s4)c3)no2)C1=O [Example 236, (R)-2-(3-(5-(3-Hydroxy-1-methyl-2-oxopyrrolidin-3-yl)isoxazol-3-yl)phenyl)-5-((1-methyl-1H-pyrazol-3-yl)amino)thiazole-4-carboxamide] gave an IC50 [1] of under 100 nM and an IC50 [2] of under 100 nM.
CN1CC[C@@](O)(c2cc(-c3cccc(-n4ccc(C(N)=O)n4)c3)no2)C1=O [Example 193, (R)-1-(3-(5-(3-Hydroxy-1-methyl-2-oxopyrrolidin-3-yl)isoxazol-3-yl)phenyl)-1H-pyrazole-3-carboxamide] gave an IC50 [1] of over 501 nM and an IC50 [2] of under 100 nM.
For COc1cc(C(N)=O)nc(-c2cccc(-c3cc([C@]4(O)CCN(C)C4=O)on3)c2)c1 [Example 8, (R)-6-(3-(5-(3-Hydroxy-1-methyl-2-oxopyrrolidin-3-yl)isoxazol-3-yl)phenyl)-4-methoxypicolinamide], the IC50 [1] was 100 to 500 nM and the IC50 [2] was under 100 nM.
COc1ccc2c(c1)c(C(N)=O)nn2-c1cccc(-c2cc([C@]3(O)CCN(C)C3=O)on2)c1 [Example 103, (R)-1-(3-(5-(3-Hydroxy-1-methyl-2-oxopyrrolidin-3-yl)isoxazol-3-yl)phenyl)-5-methoxy-1H-indazole-3-carboxamide] was tested, and the IC50 [1] was under 100 nM and the IC50 [2] was under 100 nM.
With Cc1nc(N)c2nc(-c3cccc(-c4cc([C@]5(O)CCN(C)C5=O)on4)c3)ccc2n1 [Example 1, (R)-3-(3-(3-(4-Amino-2-methylpyrido[3,2-d]pyrimidin-6-yl)phenyl)isoxazol-5-yl)-3-hydroxy-1-methylpyrrolidin-2-one] the IC50 [1] was 100 to 500 nM and the IC50 [2] was under 100 nM.
CN1CC[C@@](O)(c2cc(-c3ccnc(N4CCc5ccnc(N)c5C4)c3)no2)C1=O [Example 20, (R)-3-(3-(2-(8-Amino-3,4-dihydro-2,7-naphthyridin-2(1H)-yl)pyridin-4-yl)isoxazol-5-yl)-3-hydroxy-1-methylpyrrolidin-2-one] gave an IC50 [1] of over 501 nM and an IC50 [2] of 100 to 500 nM.
For CN1CC[C@@](O)(c2cc(-c3cccc(-c4ccn5cncc5c4)c3)no2)C1=O [Example 67, (R)-3-Hydroxy-3-(3-(3-(imidazo[1,5-a]pyridin-7-yl)phenyl)isoxazol-5-yl)-1-methylpyrrolidin-2-one], the IC50 [1] was over 501 nM and the IC50 [2] was 100 to 500 nM.
CN1CC[C@@](O)(c2cc(-c3cccc(-n4cc(C(N)=O)cn4)n3)no2)C1=O [Example 194, (R)-1-(6-(5-(3-Hydroxy-1-methyl-2-oxopyrrolidin-3-yl)isoxazol-3-yl)pyridin-2-yl)-1H-pyrazole-4-carboxamide] was tested, and the IC50 [1] was over 501 nM and the IC50 [2] was over 501 nM.
In the case of CN1C(=O)[C@](O)(c2cc(-c3cccc(-c4cc(C5CC5)c(N)c(C(N)=O)n4)c3)no2)C[C@H]1C(F)(F)F [Example 178, 3-Amino-4-cyclopropyl-6-(3-(5-((3R,5S)-3-hydroxy-1-methyl-2-oxo-5-(trifluoromethyl)pyrrolidin-3-yl)isoxazol-3-yl)phenyl)picolinamide], the IC50 [1] is reported as over 501 nM and the IC50 [2] is reported as under 100 nM.
CN1CC[C@@](O)(c2cc(-c3cccc(-c4cccc5c(=O)[nH]ccc45)c3)no2)C1=O [Example 82, (R)-5-(3-(5-(3-Hydroxy-1-methyl-2-oxopyrrolidin-3-yl)isoxazol-3-yl)phenyl)isoquinolin-1 (2H)-one] was tested, and the IC50 [1] was over 501 nM and the IC50 [2] was over 501 nM.
CN1CC[C@@](O)(c2cc(-c3cccc(-c4cn(C)c(C(N)=O)n4)c3)no2)C1=O [Example 114, (R)-4-(3-(5-(3-Hydroxy-1-methyl-2-oxopyrrolidin-3-yl)isoxazol-3-yl)phenyl)-1-methyl-1H-imidazole-2-carboxamide] was tested, and the IC50 [1] was over 501 nM and the IC50 [2] was under 100 nM.
Work on CN1CC[C@@](O)(c2cc(-c3cccc(-c4ccc(N)c(C(N)=O)n4)c3)no2)C1=O [Example 7, (R)-3-Amino-6-(3-(5-(3-hydroxy-1-methyl-2-oxopyrrolidin-3-yl)isoxazol-3-yl)phenyl)picolinamide] yielded an IC50 [1] of under 100 nM and an IC50 [2] of under 100 nM.
CN1CC[C@@](O)(c2cc(-c3cccc(-c4ncc(N)c(C(=O)N[C@H]5CCOC5)n4)c3)no2)C1=O [Example 126, 5-Amino-2-(3-(5-((R)-3-hydroxy-1-methyl-2-oxopyrrolidin-3-yl)isoxazol-3-yl)phenyl)-N—((S)-tetrahydrofuran-3-yl)pyrimidine-4-carboxamide] gave an IC50 [1] of over 501 nM and an IC50 [2] of under 100 nM.
Work on CCc1c[nH]c2ncnc(-c3cccc(-c4cc([C@]5(O)CCN(C)C5=O)on4)c3)c12 [Example 73, (R)-3-(3-(3-(5-Ethyl-7H-pyrrolo[2,3-d]pyrimidin-4-yl)phenyl)isoxazol-5-yl)-3-hydroxy-1-methylpyrrolidin-2-one] yielded an IC50 [1] of over 501 nM and an IC50 [2] of over 501 nM.

— US20250282785A1, “PYRROLIDINONE DERIVATIVES AS INHIBITORS OF NF KAPPA B INDUCING KINASE” (priority 2022, published 2025)
